Data set [1] concerns tetradecanoylphorbol 13-acetate (TPA) induced ear edema. Kind of data set: TPA-induced ear edema model. It counts as in vivo, mice. How it is done: A stock solution of TPA was prepared by dissolving TPA in DMSO, 1 mg/mL, and was stored frozen at −80° C. For study B-E, a working solution was prepared with 200 μL of the TPA stock solution added to 800 μL acetone. The working solution was used the same day as it was prepared.
Each cage was identified by a cage card marked with study number, group number, ethical approval number, sex and animal ear numbers. The animals were individually marked on the tail with transverse lines corresponding to the animals' number, using a permanent-ink felt pen. An illustration of the protocols used for the different treatments is outlined in Table 4. The compounds were tested according to the same protocols with necessary modifications.
Intraperitoneal (i.p.) injections were performed by giving 100 μL in the lower right quadrant of the abdomen. Subcutaneous injections were done with 100 μL in the neck region. Intranasal administration was performed by letting the mouse inhale droplets into the nostrils, total volume 40 μL. All administrations were done on non-anesthetized mice.
(§1) Both outer ears of a non-anesthetized mouse were washed with mild soap (Palmolive, Sweden) using a soft tooth brush, the ears were dried with tissue and cleaned with tissue soaked with acetone. After allowing the acetone to evaporate, TPA or AA was applied on both sides, 10 μL, on each side of the ear with care to cover the whole ear. The mouse was held for 20 seconds to allow the solvent to evaporate.
Intraperitoneal injections were given in the lower right quadrant of the abdomen with the animal held in a supine position. Subcutaneous (s.c.) injections were given in the neck of the animals. Intranasal administrations were given to mice held in a slightly reclining position. With an adjustable micro-pipette 40 μL of the test substance was given in droplets on the nostrils and the mouse was allowed to aspirate at free will.
(§2) The ears of non-anesthetized mice were measured at different time points for up to 96 hours after the TPA was administered, or up to 24 hours for the AA model. The first measurements were done before the edema was induced. The thickness was recorded with a spring loaded dial micrometer (Limit, Thickness Gauge, accuracy 0.01 mm, contact area Ø6 mm, Luna AB, Allingsås, Sweden) in triplicates at all time points per ear.
(§3) The average thickness for both ears on a mouse was calculated and compared to the average thickness of the ears at the starting time point. The value obtained at the start of the experiment was set as 100%. The peak values and area under the curve (AUC) values for the treatment groups were calculated and compared to the inflamed control group, treated with PBS (set as 100%), and expressed as a percentage change (Δ% AUC).
(§4) Area under the curve (AUC) with base line set as 100 was calculated using GraphPad Prism version 4.03 for Windows (GraphPad Software, San Diego Calif. USA, www.graphpad.com).
AUC reduction and P-values were calculated against the positive control (TPA or AA+PBS).

The test system of data set [2] is arachidonic acid (AA) induced ear edema. Kind of data set: Arachidonic acid (AA) induced ear edema model. The following applies: 10 μg one single s.c. injection 20 minutes before AA; compared to PBS control. It counts as in vivo, mice. How it is done: A stock solution of AA was prepared by diluting AA in acetone, 4 mg/10 μL, and was stored frozen at −80° C. A final working solution, 1 mg/10 μL, in acetone was prepared. The working solution was used within one hour after preparation.
as §1, §2, §3, §4
In addition to the experiments done with the control compounds and IDX0001, all other test compounds were investigated in a similar fashion in the TPA and/or AA ear edema models, where the test compounds were given subcutaneously (10 μg) 20 minutes before induction of edema. The results were expressed as reduction of peak value and reduction of area under curve (AUC) in Table 5.

Consider 1 substance from patent publication US8410068B2, “Compounds for the treatment or alleviation of edema, and methods for their use” (Index Pharmaceuticals AB, priority 2007, dated 2013).

Take “G*G*A*ACAGTTCGTCCAT*G*G*C (phosphorothioate linkages, as printed in the source, key not given here) [IDX0150, oligonucleotide used as control; * = phosphorothioate modification]”: the “average inflammatory peak value of swelling” value in data set [1] (FIG. 2, 100 μg IDX0150, combined from 10 experiments, vs PBS vehicle with TPA, P<0.001) is reported as “very high statistical significant reduction in peak values”. Further, the “Reduction of AUC compared to PBS” value in data set [1] (Study A / FIG. 1, 100 μg, one single injection (i.p. in Study A, s.c. in FIG. 1) 20 min before TPA, day 0) was −38.9%. Further, the “reduction of AUC” value in data set [1] (Study B, 100 μg s.c. 4 days before induction of edema) is given as “no reduction of AUC”; in data set [1] (Study C (repeat of B), 100 μg s.c. 4 days before induction of edema) it was −22%; in data set [1] (Study D, 100 μg s.c. 2 days before induction of edema), −16.5%; in data set [1] (Study E, 100 μg s.c. same day, approx. 20 min before induction) it was −27.3%; in data set [1] (Study F, equal doses 50 μg s.c. same day as swelling induced), −31.1%; in data set [1] (Study G, therapeutic, 100 μg s.c. 2 hours after induction of edema), −42.3%. For the same substance, the “reduction of AUC” value is given as −25.7% in data set [1] (Study H, 100 μg intranasal 4 days before swelling induced); −28.4% in data set [1] (Study I, 100 μg intranasal day 0, same day as edema induced); −13.9% in data set [1] (Study K dose response, 0.1 μg s.c. day 0); −16.3% in data set [1] (Study K dose response, 1 μg s.c. day 0); −27.9% in data set [1] (Study K dose response, 10 μg s.c. day 0); −45% in data set [1] (Study K dose response, 100 μg s.c. day 0). For the same substance, the “reduction of AUC” value in data set [1] (Study O, 10 μg given s.c. on day 0 (Table 4: i.n.)) is −25.5%. Besides, the AUC reduced in data set [1] (Study J, therapeutic, 100 μg intranasal 2 hours after induction) was −28.8%. Moreover, in data set [2], the “AUC reduction (%) AA” value was −89.4%.
